Laboratory results reported in PubChem BioAssay (NCI).
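Step 1: Grow cells in 96-well plates. Step 2: Expose to compound for 48 hours at 5 concentrations. Step 3: Interpolate endpoints linearly; if unreached, use highest concentration. TGI marks complete inhibition of growth.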

Experiments:
Test in all cases: growth of human tumour cells (NCI), 48 h
OVCAR-4 ovarian = system: OVCAR-4 ovarian
MCF7 breast = system: MCF7 breast
SR leukemia = system: SR leukemia
UACC-62 melanoma = system: UACC-62 melanoma
HOP-92 NSCLC = system: HOP-92 NSCLC
MOLT-4 leukemia = system: MOLT-4 leukemia
HCT-116 colon = system: HCT-116 colon
786-0 renal = system: 786-0 renal
HOP-62 NSCLC = system: HOP-62 NSCLC
CAKI-1 renal = system: CAKI-1 renal
CCRF-CEM leukemia = system: CCRF-CEM leukemia
BT-549 breast = system: BT-549 breast
M14 melanoma = system: M14 melanoma
MDA-N = system: MDA-N
OVCAR-3 ovarian = system: OVCAR-3 ovarian
SNB-19 CNS = system: SNB-19 CNS
SK-MEL-5 melanoma = system: SK-MEL-5 melanoma
COLO 205 colon = system: COLO 205 colon
MDA-MB-231 breast = system: MDA-MB-231 breast
SW-620 colon = system: SW-620 colon
NCI-H460 lung = system: NCI-H460 lung
UACC-257 melanoma = system: UACC-257 melanoma
A498 renal = system: A498 renal
SNB-75 CNS = system: SNB-75 CNS
EKVX NSCLC = system: EKVX NSCLC
TK-10 renal = system: TK-10 renal
NCI-H226 lung = system: NCI-H226 lung
NCI-H23 lung = system: NCI-H23 lung
PC-3 prostate = system: PC-3 prostate
K-562 leukemia = system: K-562 leukemia
OVCAR-5 ovarian = system: OVCAR-5 ovarian
U251 CNS = system: U251 CNS
HL-60(TB) leukemia = system: HL-60(TB) leukemia
OVCAR-8 ovarian = system: OVCAR-8 ovarian
IGROV1 ovarian = system: IGROV1 ovarian
A549 NSCLC = system: A549 NSCLC
HCC-2998 colon = system: HCC-2998 colon
RXF 393 renal = system: RXF 393 renal
SF-539 CNS = system: SF-539 CNS
UO-31 renal = system: UO-31 renal
ACHN renal = system: ACHN renal
MALME-3M melanoma = system: MALME-3M melanoma
DU-145 prostate = system: DU-145 prostate
SN12C renal = system: SN12C renal
SK-OV-3 ovarian = system: SK-OV-3 ovarian
HT29 colon = system: HT29 colon
SF-268 CNS = system: SF-268 CNS
MDA-MB-435 = system: MDA-MB-435
NCI-H522 lung = system: NCI-H522 lung
SK-MEL-28 melanoma = system: SK-MEL-28 melanoma
SF-295 CNS = system: SF-295 CNS
T-47D breast = system: T-47D breast
KM12 colon = system: KM12 colon
HS 578T breast = system: HS 578T breast
NCI/ADR-RES ovarian = system: NCI/ADR-RES ovarian
HCT-15 colon = system: HCT-15 colon
SK-MEL-2 melanoma = system: SK-MEL-2 melanoma
LOX IMVI melanoma = system: LOX IMVI melanoma
RPMI-8226 leukemia = system: RPMI-8226 leukemia

Work on `CC(=O)NC1(NC(C)=O)C2CC(C1Cc1ccccc1)C(C)(C)C2C` (centres undefined) yielded a TGI (OVCAR-4 ovarian) greater than 100 µM, a TGI (MCF7 breast) greater than 100 µM and a TGI (SR leukemia) greater than 100 µM. For the same compound, the TGI (UACC-62 melanoma) was greater than 100 µM, the TGI (HOP-92 NSCLC) was greater than 100 µM and the TGI (MOLT-4 leukemia) was greater than 100 µM. It also gave a TGI (HCT-116 colon) greater than 100 µM, a TGI (786-0 renal) greater than 100 µM and a TGI (HOP-62 NSCLC) greater than 100 µM. The TGI (CAKI-1 renal) was greater than 100 µM, the TGI (CCRF-CEM leukemia) was greater than 100 µM and the TGI (BT-549 breast) was greater than 100 µM. For the same compound, the TGI (M14 melanoma) was greater than 100 µM, the TGI (MDA-N) was greater than 100 µM and the TGI (OVCAR-3 ovarian) was greater than 100 µM. For the same compound, the TGI (SNB-19 CNS) was greater than 100 µM, the TGI (SK-MEL-5 melanoma) was greater than 100 µM and the TGI (COLO 205 colon) was greater than 100 µM. The TGI (MDA-MB-231 breast) was greater than 100 µM, the TGI (SW-620 colon) was greater than 100 µM and the TGI (NCI-H460 lung) was greater than 100 µM. It also gave a TGI (UACC-257 melanoma) greater than 100 µM, a TGI (A498 renal) greater than 100 µM and a TGI (SNB-75 CNS) greater than 100 µM. The TGI (EKVX NSCLC) was greater than 100 µM, the TGI (TK-10 renal) was greater than 100 µM and the TGI (NCI-H226 lung) was greater than 100 µM. For the same compound, the TGI (NCI-H23 lung) was greater than 100 µM, the TGI (PC-3 prostate) was greater than 100 µM and the TGI (K-562 leukemia) was greater than 100 µM. The TGI (OVCAR-5 ovarian) was greater than 100 µM, the TGI (U251 CNS) was greater than 100 µM and the TGI (HL-60(TB) leukemia) was greater than 100 µM. For the same compound, the TGI (OVCAR-8 ovarian) was greater than 100 µM, the TGI (IGROV1 ovarian) was greater than 100 µM and the TGI (A549 NSCLC) was greater than 100 µM. For the same compound, the TGI (HCC-2998 colon) was greater than 100 µM, the TGI (RXF 393 renal) was greater than 100 µM and the TGI (SF-539 CNS) was greater than 100 µM. It also gave a TGI (UO-31 renal) greater than 100 µM, a TGI (ACHN renal) greater than 100 µM and a TGI (MALME-3M melanoma) greater than 100 µM. The TGI (DU-145 prostate) was greater than 100 µM, the TGI (SN12C renal) was greater than 100 µM and the TGI (SK-OV-3 ovarian) was greater than 100 µM. For the same compound, the TGI (HT29 colon) was greater than 100 µM, the TGI (SF-268 CNS) was greater than 100 µM and the TGI (MDA-MB-435) was greater than 100 µM. For the same compound, the TGI (NCI-H522 lung) was greater than 100 µM, the TGI (SK-MEL-28 melanoma) was greater than 100 µM and the TGI (SF-295 CNS) was greater than 100 µM. For the same compound, the TGI (T-47D breast) was greater than 100 µM, the TGI (KM12 colon) was greater than 100 µM and the TGI (HS 578T breast) was greater than 100 µM.

`CO/N=C\c1ccc2c(c1)Sc1ccccc1O2` was tested, and the TGI (OVCAR-4 ovarian) was greater than 100 µM, the TGI (MCF7 breast) was greater than 100 µM and the TGI (SR leukemia) was greater than 100 µM. The TGI (NCI/ADR-RES ovarian) was greater than 100 µM, the TGI (UACC-62 melanoma) was greater than 100 µM and the TGI (HCT-15 colon) was greater than 100 µM. The TGI (SK-MEL-2 melanoma) was greater than 100 µM, the TGI (HOP-92 NSCLC) was greater than 100 µM and the TGI (MOLT-4 leukemia) was greater than 100 µM. The TGI (HCT-116 colon) was greater than 100 µM, the TGI (786-0 renal) was greater than 100 µM and the TGI (HOP-62 NSCLC) was greater than 100 µM. For the same compound, the TGI (CAKI-1 renal) was greater than 100 µM, the TGI (M14 melanoma) was greater than 100 µM and the TGI (MDA-N) was greater than 100 µM. It also gave a TGI (OVCAR-3 ovarian) greater than 100 µM, a TGI (SNB-19 CNS) greater than 100 µM and a TGI (COLO 205 colon) greater than 100 µM. It also gave a TGI (MDA-MB-231 breast) greater than 100 µM, a TGI (SW-620 colon) greater than 100 µM and a TGI (NCI-H460 lung) greater than 100 µM. The TGI (UACC-257 melanoma) was greater than 100 µM, the TGI (A498 renal) was greater than 100 µM and the TGI (SNB-75 CNS) was greater than 100 µM. For the same compound, the TGI (EKVX NSCLC) was greater than 100 µM, the TGI (LOX IMVI melanoma) was greater than 100 µM and the TGI (TK-10 renal) was greater than 100 µM. For the same compound, the TGI (NCI-H226 lung) was greater than 100 µM, the TGI (NCI-H23 lung) was greater than 100 µM and the TGI (PC-3 prostate) was greater than 100 µM. It also gave a TGI (K-562 leukemia) greater than 100 µM, a TGI (OVCAR-5 ovarian) greater than 100 µM and a TGI (U251 CNS) greater than 100 µM. For the same compound, the TGI (HL-60(TB) leukemia) was greater than 100 µM, the TGI (OVCAR-8 ovarian) was greater than 100 µM and the TGI (IGROV1 ovarian) was greater than 100 µM. For the same compound, the TGI (A549 NSCLC) was greater than 100 µM, the TGI (HCC-2998 colon) was greater than 100 µM and the TGI (RPMI-8226 leukemia) was greater than 100 µM. It also gave a TGI (RXF 393 renal) greater than 100 µM, a TGI (SF-539 CNS) greater than 100 µM and a TGI (UO-31 renal) greater than 100 µM. For the same compound, the TGI (ACHN renal) was greater than 100 µM, the TGI (MALME-3M melanoma) was greater than 100 µM and the TGI (DU-145 prostate) was greater than 100 µM. For the same compound, the TGI (SN12C renal) was greater than 100 µM, the TGI (SK-OV-3 ovarian) was greater than 100 µM and the TGI (HT29 colon) was greater than 100 µM. It also gave a TGI (SF-268 CNS) greater than 100 µM, a TGI (MDA-MB-435) greater than 100 µM and a TGI (SK-MEL-28 melanoma) greater than 100 µM. For the same compound, the TGI (SF-295 CNS) was greater than 100 µM, the TGI (T-47D breast) was greater than 100 µM and the TGI (KM12 colon) was greater than 100 µM. It also gave a TGI (HS 578T breast) of 97.3 µM.
